Experimental data taken from ChEMBL document CHEMBL3217610, “SAR investigations on a novel class of gamma-secretase modulators based on a unique scaffold” (Medchemcomm, 2013).

Experiments:
[1] = target: T1, Gamma-secretase (Homo sapiens) (UniProt Q96BI3+Q9NZ42+Q8WW43+P49768+Q92542+P49810); experiment: Selectivity ratio of IC50 for modulation of gamma-secretase (unknown origin) assessed as inhibition of amyloid beta 40 production to IC50 for modulation of gamma-secretase (unknown origin) assessed as inhibition of amyloid beta 42 production; assay type: protein-complex assay
[2] = target: T1, Gamma-secretase (Homo sapiens); experiment: Modulation of gamma-secretase (unknown origin) assessed as inhibition of amyloid beta 40 production at 20 uM relative to control; assay type: protein-complex assay
Gamma-secretase [3] = experiment: Modulation of gamma-secretase (unknown origin) assessed as inhibition of amyloid beta 42 production; assay type: protein-complex assay, Homo sapiens
Gamma-secretase [4] = experiment: Modulation of gamma-secretase (unknown origin) expressed in CHO cells assessed as inhibition of amyloid beta 40 production; assay type: cell-based, Homo sapiens
Gamma-secretase [5] = experiment: Modulation of gamma-secretase (unknown origin) expressed in CHO cells assessed as inhibition of amyloid beta 42 production; assay type: cell-based, Homo sapiens
Gamma-secretase [6] = experiment: Modulation of gamma-secretase (unknown origin) assessed as inhibition of amyloid beta 40 production; assay type: protein-complex assay, Homo sapiens
[7] = target: T1, Gamma-secretase (Homo sapiens); experiment: Modulation of gamma-secretase (unknown origin) assessed as inhibition of amyloid beta 40 production at 4 uM relative to control; assay type: protein-complex assay

| Ratio IC50 [1] | inhibition [2] [%] | inhibition [7] [%] | SMILES | IC50 (Gamma-secretase [3]) [µM] | IC50 (Gamma-secretase [4]) [µM] | IC50 (Gamma-secretase [5]) [µM] | IC50 (Gamma-secretase [6]) [µM] |
| --- | --- | --- | --- | --- | --- | --- | --- |
| > 44 | 40 | – | CC(=O)O[C@@H]([C@@H]1C[C@@H](C)[C@H]2[C@H](O1)[C@H](O)[C@@]1(C)[C@@H]3CC[C@H]4C(C)(C)[C@@H](OC(=O)NC5COC5)CC[C@@]45C[C@@]35CC[C@]21C)C(C)(C)O | 0.45 | – | – | – |
| – | – | – | CC(=O)O[C@@H]([C@@H]1C[C@@H](C)C2=C(O1)[C@H](O)[C@@]1(C)[C@@H]3CC[C@H]4C(C)(C)[C@@H](O[C@@H]5OC[C@@H](O)[C@H](O)[C@H]5O)CC[C@@]45C[C@@]35CC[C@]21C)C(C)(C)O | 0.1 | 6.3 | 0.1 | 2.7 |
| – | – | – | CC(=O)O[C@@H]([C@@H]1C[C@@H](C)[C@H]2[C@H](O1)[C@H](O)[C@@]1(C)[C@@H]3CC[C@H]4C(C)(C)[C@@H](OC(=O)C5CCN5)CC[C@@]45C[C@@]35CC[C@]21C)C(C)(C)O (mixture of isomers) | 0.22 | – | – | – |
| 24 | – | – | CC(=O)O[C@@H]([C@@H]1C[C@@H](C)[C@H]2[C@H](O1)[C@H](O)[C@@]1(C)[C@@H]3CC[C@H]4C(C)(C)[C@@H](OC(=O)C5CNC5)CC[C@@]45C[C@@]35CC[C@]21C)C(C)(C)O | 0.055 | – | – | 1.3 |
| 43 | – | – | CC(=O)O[C@@H]([C@@H]1C[C@@H](C)[C@H]2[C@H](O1)[C@H](O)[C@@]1(C)[C@@H]3CC[C@H]4C(C)(C)[C@@H](OC(=O)N5CCC5)CC[C@@]45C[C@@]35CC[C@]21C)C(C)(C)O | 0.34 | – | – | 14.7 |
| > 33 | 41 | – | CC(=O)O[C@@H]([C@@H]1C[C@@H](C)[C@H]2[C@H](O1)[C@H](O)[C@@]1(C)[C@@H]3CC[C@H]4C(C)(C)[C@@H](OC(=O)C5(C)COC5)CC[C@@]45C[C@@]35CC[C@]21C)C(C)(C)O | 0.59 | – | – | – |
| > 11 | – | 23 | CC(=O)O[C@@H]([C@@H]1C[C@@H](C)[C@H]2[C@H](O1)[C@H](O)[C@@]1(C)[C@@H]3CC[C@H]4C(C)(C)[C@@H](OC(=O)NCCN(C)C)CC[C@@]45C[C@@]35CC[C@]21C)C(C)(C)O | 0.36 | – | – | – |
| > 8 | 37 | – | CC(=O)O[C@@H]([C@@H]1C[C@@H](C)[C@H]2[C@H](O1)[C@H](O)[C@@]1(C)[C@@H]3CC[C@H]4C(C)(C)[C@@H](OC(=O)NCC(=O)O)CC[C@@]45C[C@@]35CC[C@]21C)C(C)(C)O | 2.5 | – | – | – |
| 20 | – | – | CC(=O)O[C@@H]([C@@H]1C[C@@H](C)[C@H]2[C@H](O1)[C@H](O)[C@@]1(C)[C@@H]3CC[C@H]4C(C)(C)[C@@H](OC(=O)[C@@H]5CCCN5)CC[C@@]45C[C@@]35CC[C@]21C)C(C)(C)O | 0.23 | – | – | 4.6 |
| – | – | – | CC(=O)O[C@@H]([C@@H]1C[C@@H](C)[C@H]2[C@H](O1)C(=O)[C@@]1(C)[C@@H]3CC[C@H]4C(C)(C)[C@@H](O[C@@H]5OC[C@@H](O)[C@H](O)[C@H]5O)CC[C@@]45C[C@@]35CC[C@]21C)C(C)(C)O | 0.6 | – | – | 9.8 |
| – | – | – | C[C@@H]1C[C@@H]([C@H](O)C(C)(C)O)O[C@H]2[C@H]1[C@@]1(C)CC[C@@]34C[C@@]35CC[C@H](O[C@@H]3OC[C@@H](O)[C@H](O)[C@H]3O)C(C)(C)[C@@H]5CC[C@H]4[C@]1(C)[C@H]2O | 3.1 | – | – | – |
| – | – | – | CC(=O)OC(C)(C)[C@H]1O[C@@]23O[C@H]1C[C@@H](C)C2[C@@]1(C)CC[C@@]24C[C@@]25CC[C@H](O[C@@H]2OC[C@@H](O)[C@H](O)[C@H]2O)C(C)(C)[C@@H]5CC[C@H]4[C@]1(C)[C@H]3O (stereo partly specified) | 3 | – | – | – |
| 62 | – | – | CC(=O)O[C@@H]([C@@H]1C[C@@H](C)[C@H]2[C@H](O1)[C@H](O)[C@@]1(C)[C@@H]3CC[C@H]4C(C)(C)[C@@H](OC(=O)N5CCOCC5)CC[C@@]45C[C@@]35CC[C@]21C)C(C)(C)O | 0.22 | – | – | 13.6 |
| – | – | – | CC(=O)O[C@@H]([C@@H]1C[C@@H](C)[C@H]2[C@H](O1)[C@H](O)[C@@]1(C)[C@@H]3CC[C@H]4C(C)(C)[C@@H](OC(=O)c5ccncc5)CC[C@@]45C[C@@]35CC[C@]21C)C(C)(C)O | 1 | – | – | – |
| 29 | – | – | CC(=O)O[C@@H]([C@@H]1C[C@@H](C)[C@H]2[C@H](O1)[C@H](O)[C@@]1(C)[C@@H]3CC[C@H]4C(C)(C)[C@@H](OC(=O)NC5CN6CCC5CC6)CC[C@@]45C[C@@]35CC[C@]21C)C(C)(C)O (stereo partly specified) | 0.084 | – | – | 2.4 |
| > 86 | 31 | – | CC(=O)O[C@@H]([C@@H]1C[C@@H](C)[C@H]2[C@H](O1)[C@H](O)[C@@]1(C)[C@@H]3CC[C@H]4C(C)(C)[C@@H](OC(=O)NCCN5CCOCC5)CC[C@@]45C[C@@]35CC[C@]21C)C(C)(C)O | 0.23 | – | – | – |
| 33 | – | – | CC(=O)O[C@@H]([C@@H]1C[C@@H](C)[C@H]2[C@H](O1)[C@H](O)[C@@]1(C)[C@@H]3CC[C@H]4C(C)(C)[C@@H](OC(=O)NCCN)CC[C@@]45C[C@@]35CC[C@]21C)C(C)(C)O | 0.091 | – | – | 3 |
| > 42 | 26 | – | CC(=O)O[C@@H]([C@@H]1C[C@@H](C)[C@H]2[C@H](O1)[C@H](O)[C@@]1(C)[C@@H]3CC[C@H]4C(C)(C)[C@@H](OC(=O)NC5CCC5)CC[C@@]45C[C@@]35CC[C@]21C)C(C)(C)O | 0.47 | – | – | – |
| > 35 | 32 | – | CC(=O)O[C@@H]([C@@H]1C[C@@H](C)[C@H]2[C@H](O1)[C@H](O)[C@@]1(C)[C@@H]3CC[C@H]4C(C)(C)[C@@H](OC(=O)NCc5ccccn5)CC[C@@]45C[C@@]35CC[C@]21C)C(C)(C)O | 0.56 | – | – | – |
| – | – | – | CC(=O)O[C@@H]([C@@H]1C[C@@H](C)[C@H]2[C@H](O1)[C@H](O)[C@@]1(C)[C@@H]3CC[C@H]4C(C)(C)[C@@H](O[C@@H]5OC[C@@H](O)[C@H](O)[C@H]5O)CC[C@@]45C[C@@]35CC[C@]21C)C(C)(C)O | 0.06 | – | – | 1 |
| – | – | – | CC(=O)O[C@@H]([C@@H]1C[C@@H](C)[C@H]2[C@H](O1)[C@H](O)[C@@]1(C)[C@@H]3CC[C@H]4C(C)(C)[C@@H](OC(=O)CN)CC[C@@]45C[C@@]35CC[C@]21C)C(C)(C)O | 0.095 | – | – | – |
| – | – | – | CC(=O)O[C@@H]([C@@H]1C[C@@H](C)[C@H]2[C@H](O1)[C@H](O)[C@@]1(C)[C@@H]3CC[C@H]4C(C)(C)[C@@H](O)CC[C@@]45C[C@@]35CC[C@]21C)C(C)(C)O | 0.6 | – | – | 14 |

| SMILES | Ratio IC50 [1] | inhibition [2] [%] | inhibition [7] [%] | IC50 (Gamma-secretase [3]) [µM] | IC50 (Gamma-secretase [4]) [µM] | IC50 (Gamma-secretase [5]) [µM] | IC50 (Gamma-secretase [6]) [µM] |
| --- | --- | --- | --- | --- | --- | --- | --- |
| CC(=O)O[C@@H]([C@@H]1C[C@@H](C)[C@H]2[C@H](O1)[C@H](O)[C@@]1(C)[C@@H]3CC[C@H]4C(C)(C)[C@@H](OC(N)=O)CC[C@@]45C[C@@]35CC[C@]21C)C(C)(C)O | > 100 | 27 | – | 0.2 | – | – | – |
| CC(=O)O[C@@H]([C@@H]1C[C@@H](C)[C@H]2[C@H](O1)[C@H](O)[C@@]1(C)[C@@H]3CC[C@H]4C(C)(C)[C@@H](OC(=O)c5cccnc5)CC[C@@]45C[C@@]35CC[C@]21C)C(C)(C)O | 54 | – | – | 0.26 | – | – | 14 |
| CC(=O)O[C@@H]([C@@H]1C[C@@H](C)[C@H]2[C@H](O1)[C@H](O)[C@@]1(C)[C@@H]3CC[C@H]4C(C)(C)[C@@H](OC(=O)C5CCCO5)CC[C@@]45C[C@@]35CC[C@]21C)C(C)(C)O (mixture of isomers) | > 23 | 44 | – | 0.86 | – | – | – |
| CC(=O)O[C@H]1CC[C@]23C[C@]24CC[C@]2(C)[C@@H]5[C@H](O[C@H]([C@H](OC(C)=O)C(C)(C)O)C[C@H]5C)[C@H](O)[C@@]2(C)[C@@H]4CC[C@H]3C1(C)C | 16 | – | – | 0.76 | – | – | 12 |
| CC(=O)O[C@@H]([C@@H]1C[C@@H](C)[C@H]2[C@H](O1)[C@H](O)[C@@]1(C)[C@@H]3CC[C@H]4C(C)(C)[C@@H](OC(=O)Cc5ccccn5)CC[C@@]45C[C@@]35CC[C@]21C)C(C)(C)O | 9 | – | – | 0.78 | – | – | 7.2 |
| CC(=O)O[C@@H]([C@@H]1C[C@@H](C)[C@H]2[C@H](O1)[C@H](O)[C@@]1(C)[C@@H]3CC[C@H]4C(C)(C)[C@@H](OC(=O)NC5CNC5)CC[C@@]45C[C@@]35CC[C@]21C)C(C)(C)O | 7 | – | – | 0.047 | – | – | 0.33 |
| CC(=O)O[C@@H]([C@@H]1C[C@@H](C)[C@H]2[C@H](O1)[C@H](O)[C@@]1(C)[C@@H]3CC[C@H]4C(C)(C)[C@@H](OC(=O)CN(C)C)CC[C@@]45C[C@@]35CC[C@]21C)C(C)(C)O | 15 | – | – | 0.57 | – | – | 8.4 |
| CC(=O)O[C@@H]([C@@H]1C[C@@H](C)[C@H]2[C@H](O1)[C@H](O)[C@@]1(C)[C@@H]3CC[C@H]4C(C)(C)[C@@H](OC(=O)c5ccccn5)CC[C@@]45C[C@@]35CC[C@]21C)C(C)(C)O | 25 | – | – | 0.52 | – | – | 13 |
| CC(=O)O[C@@H]([C@@H]1C[C@@H](C)[C@H]2[C@H](O1)[C@H](O)[C@@]1(C)[C@@H]3CC[C@H]4C(C)(C)[C@@H](OC(=O)CCC(=O)O)CC[C@@]45C[C@@]35CC[C@]21C)C(C)(C)O | 11 | – | – | 1.6 | – | – | 18 |
